The values below come from paper PMC4554834 (Bioorganic & medicinal chemistry, 2015).

The target of one test is T1, human OX1 receptors (Homo sapiens, UniProt O43613).
T1 sequence (O43613 1-425): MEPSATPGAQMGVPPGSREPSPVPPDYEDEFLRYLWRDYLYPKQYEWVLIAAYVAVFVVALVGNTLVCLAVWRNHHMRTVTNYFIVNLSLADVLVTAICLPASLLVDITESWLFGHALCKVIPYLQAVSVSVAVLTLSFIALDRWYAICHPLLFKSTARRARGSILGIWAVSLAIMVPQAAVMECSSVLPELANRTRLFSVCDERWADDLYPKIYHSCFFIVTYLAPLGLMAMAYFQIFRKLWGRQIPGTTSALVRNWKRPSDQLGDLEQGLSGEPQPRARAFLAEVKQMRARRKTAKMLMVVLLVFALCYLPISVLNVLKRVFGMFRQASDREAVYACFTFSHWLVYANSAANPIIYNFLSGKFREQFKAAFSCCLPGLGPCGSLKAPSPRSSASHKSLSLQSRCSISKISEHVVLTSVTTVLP
Description: Calcium mobilization Ke. Particulars: for OX1 potency (in words): qualitative statement. Type of test: cell-based.

A further test deals with T2, human OX2 receptors (Homo sapiens, UniProt O43614).
T2 sequence (O43614 1-444): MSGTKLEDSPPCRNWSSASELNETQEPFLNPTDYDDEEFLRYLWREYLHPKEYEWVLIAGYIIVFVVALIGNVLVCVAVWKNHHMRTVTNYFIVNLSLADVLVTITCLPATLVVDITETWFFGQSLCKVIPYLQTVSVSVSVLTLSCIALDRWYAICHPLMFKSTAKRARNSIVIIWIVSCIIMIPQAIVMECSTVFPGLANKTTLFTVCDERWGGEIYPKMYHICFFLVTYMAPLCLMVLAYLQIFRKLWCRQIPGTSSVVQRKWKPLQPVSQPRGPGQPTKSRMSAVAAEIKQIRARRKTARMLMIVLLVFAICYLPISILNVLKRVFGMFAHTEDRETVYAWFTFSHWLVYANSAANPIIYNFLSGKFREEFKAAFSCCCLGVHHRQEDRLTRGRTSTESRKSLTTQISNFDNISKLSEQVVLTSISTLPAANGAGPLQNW
Description: Calcium mobilization Ke. Type of test: cell-based. (In general: Calcium assays in cells follow changes in intracellular calcium, usually with a dye or a luminescent sensor.)

Another test deals with OX1. To be noted: cited from earlier work.
For test [1] the following is noted: cited from earlier work.
A further test concerns OX2 receptor. To be noted: cited from earlier work.

`CCC(=O)Oc1ccc2c(c1)CCN(CC(=O)NCc1ccccc1)C2Cc1ccc(OC)c(OC)c1` (centres unmarked) [compound 19, 2-[(Benzylcarbamoyl)methyl]-1-[(3,4-dimethoxyphenyl)methyl]-1,2,3,4-tetrahydroisoquinolin-6-yl propanoate]: the figures for the Kb at human OX1 receptors and on human OX2 receptors were above 10 µM and 1.29 ± 0.13 µM, respectively.

Take `Cc1nc2ccc(NC(=O)Nc3ccnc4cccnc34)cc2o1` [SB-334867]: the “selectivity for OX1 over OX2” value in the test with OX1 is given as ~ 50 fold.

In the case of `CCCOc1ccc2c(c1)C(Cc1ccc(OC)c(OC)c1)N(CC(=O)NCc1ccccc1)CC2` (centres unmarked) [10c, N-Benzyl-2-{1-[(3,4-dimethoxyphenyl)methyl]-7-propoxy-1,2,3,4-tetrahydroisoquinolin-2-yl}acetamide], the Kb on human OX1 receptors was found to be 0.0237 ± 0.0079 µM; on human OX2 receptors, 2.55 ± 0.26 µM. The “mode of antagonism at OX1” value on human OX1 receptors (15 minute pre-incubation) was “competitive antagonism”. Also, the “selectivity for OX1 over OX2” value on human OX1 receptors (OX2 versus OX1 Ke) is listed as above 100 fold.

For `COc1ccc(CC2c3ccc(OS(C)(=O)=O)cc3CCN2CC(=O)NCc2ccccc2)cc1OC` (centres unmarked) [18a, 2-[(Benzylcarbamoyl)methyl]-1-[(3,4-dimethoxyphenyl)methyl]-1,2,3,4-tetrahydroisoquinolin-6-yl methanesulfonate], the Kb was above 10 µM on human OX1 receptors and 1.33 ± 0.26 µM on human OX2 receptors.

As to `COC(=O)Nc1ccc2c(c1)CCN(CC(=O)NCc1ccccc1)C2Cc1ccc(OC)c(OC)c1` (centres unmarked) [23a, Methyl N-{2-[(benzylcarbamoyl)methyl]-1-[(3,4-dimethoxyphenyl)methyl]-1,2,3,4-tetrahydroisoquinolin-6-yl}carbamate], at human OX1 receptors, the Kb came to 2.4 ± 0.32 µM and the “OX1 potency (in words)” value was “slight potency”. The Kb on human OX2 receptors is above 10 µM.

As to `COc1cc2c(cc1OC)CN(C(=O)[C@@H](NCc1ccncc1)C(C)(C)C)CC2` [TCS-OX2-29], the “effect on cocaine self-administration” value in test [1] is given as “no effect”. Also, the “effect on cue-induced reinstatement” value in test [1] (cocaine) was “no effect”.

Consider `CCOC(=O)Nc1ccc2c(c1)CCN(CC(=O)NCc1ccccc1)C2Cc1ccc(OC)c(OC)c1` (centres unmarked) [23b, Ethyl N-{2-[(benzylcarbamoyl)methyl]-1-[(3,4-dimethoxyphenyl)methyl]-1,2,3,4-tetrahydroisoquinolin-6-yl}carbamate], for which, at human OX1 receptors, the Kb was above 10 µM and the “OX1 potency (in words)” value is “not active”. In addition, the Kb on human OX2 receptors was above 10 µM.

For the compound `COc1ccc(CC2c3ccc(NC(C)C)cc3CCN2CC(=O)NCc2ccccc2)cc1OC` (centres unmarked) [25e, N-Benzyl-2-{1-[(3,4-dimethoxyphenyl)methyl]-6-[(propan-2-yl)amino]-1,2,3,4-tetrahydroisoquinolin-2-yl}acetamide], the Kb at human OX1 receptors is above 10 µM.

As for `COc1ccc(CC2c3ccc(N(C)CC4CC4)cc3CCN2CC(=O)NCc2ccccc2)cc1OC` (centres unmarked) [25g, N-Benzyl-2-{6-[(cyclopropylmethyl)(methyl)amino]-1-[(3,4-dimethoxyphenyl)methyl]-1,2,3,4-tetrahydroisoquinolin-2-yl}acetamide], the Kb at human OX1 receptors amounted to 1.4 ± 0.24 µM.

As to `CCCCCCNC(=O)Nc1ccc2c(c1)CCN(CC(=O)NCc1ccccc1)C2Cc1ccc(OC)c(OC)c1` (centres unmarked) [28e, N-Benzyl-2-{1-[(3,4-dimethoxyphenyl)methyl]-6-[(hexylcarbamoyl)amino]-1,2,3,4-tetrahydroisoquinolin-2-yl}acetamide], at human OX1 receptors, the Kb stood at 5.23 ± 0.68 µM and the “OX1 potency (in words)” value is on record as “no significant potency”.

With `CNC(=O)[C@@H](c1ccccc1)N1CCc2cc(OC)c(OC)cc2[C@@H]1CCc1ccc(C(F)(F)F)cc1` [Almorexant, almorexant], the “mode of antagonism at the OX2 receptor” value with OX2 receptor was “insurmountable antagonist”.

Take `COc1ccc2c(c1)C(Cc1ccc(OC)c(OC)c1)N(CC(=O)NCc1ccccc1)CC2` (centres unmarked) [10a, N-Benzyl-2-{1-[(3,4-dimethoxyphenyl)methyl]-7-methoxy-1,2,3,4-tetrahydroisoquinolin-2-yl}acetamide]: the values for the Kb at human OX1 receptors and at human OX2 receptors were 0.512 ± 0.036 µM and 1.68 ± 0.33 µM, respectively.

On to `CCCN(CCC)c1ccc2c(c1)CCN(CC(=O)NCc1ccccc1)C2Cc1ccc(OC)c(OC)c1` (centres unmarked) [25d, N-Benzyl-2-{1-[(3,4-dimethoxyphenyl)methyl]-6-(dipropylamino)-1,2,3,4-tetrahydroisoquinolin-2-yl}acetamide], for which the Kb at human OX1 receptors stood at 2.35 ± 0.49 µM.

Regarding `CCOC(=O)CCCNc1ccc2c(c1)CCN(CC(=O)NCc1ccccc1)C2Cc1ccc(OC)c(OC)c1` (centres unmarked) [26d, Ethyl 4-({2-[(benzylcarbamoyl)methyl]-1-[(3,4-dimethoxyphenyl)methyl]-1,2,3,4-tetrahydroisoquinolin-6-yl}amino)butanoate], on human OX1 receptors, the Kb came out at 0.591 ± 0.067 µM and the “OX1 potency (in words)” value is recorded as “some activity”. Also, at human OX2 receptors, the Kb is above 10 µM.

With `CCCCCC(=O)Nc1ccc2c(c1)CCN(CC(=O)NCc1ccccc1)C2Cc1ccc(OC)c(OC)c1` (centres unmarked) [28b, N-{2-[(Benzylcarbamoyl)methyl]-1-[(3,4-dimethoxyphenyl)methyl]-1,2,3,4-tetrahydroisoquinolin-6-yl}hexanamide], the Kb at human OX1 receptors and at human OX2 receptors was above 10 µM throughout.

As for `COc1ccc(CC2c3ccc(NCc4cccnc4)cc3CCN2CC(=O)NCc2ccccc2)cc1OC` (centres unmarked) [25n, N-Benzyl-2-{1-[(3,4-dimethoxyphenyl)methyl]-6-[(pyridin-3-ylmethyl)amino]-1,2,3,4-tetrahydroisoquinolin-2-yl}acetamide], the Kb at human OX1 receptors was 1.27 ± 0.11 µM.

In the case of `CCOc1ccc2c(c1)C(Cc1ccc(OC)c(OC)c1)N(CC(=O)NCc1ccccc1)CC2` (centres unmarked) [10b, N-Benzyl-2-{1-[(3,4-dimethoxyphenyl)methyl]-7-ethoxy-1,2,3,4-tetrahydroisoquinolin-2-yl}acetamide], on human OX1 receptors, the Kb was found to be 0.0373 ± 0.0078 µM.

Regarding `CCCNc1ccc2c(c1)CCN(CC(=O)NCc1ccccc1)C2Cc1ccc(OC)c(OC)c1` (centres unmarked) [25b, N-Benzyl-2-{1-[(3,4-dimethoxyphenyl)methyl]-6-(propylamino)-1,2,3,4-tetrahydroisoquinolin-2-yl}acetamide], on human OX1 receptors, the Kb is above 10 µM.

Turning to `COc1ccc(CC2c3ccc(N4CCCCC4)cc3CCN2CC(=O)NCc2ccccc2)cc1OC` (centres unmarked) [25q, N-Benzyl-2-{1-[(3,4-dimethoxyphenyl)methyl]-6-(piperidin-1-yl)-1,2,3,4-tetrahydroisoquinolin-2-yl}acetamide], on human OX1 receptors, the Kb was above 10 µM and the “OX1 potency (in words)” value is “no detectable potency”.

As to `COc1ccc(CC2c3ccc(NS(C)(=O)=O)cc3CCN2CC(=O)NCc2ccccc2)cc1OC` (centres unmarked) [compound 27, N-Benzyl-2-{1-[(3,4-dimethoxyphenyl)methyl]-6-methanesulfonamido-1,2,3,4-tetrahydroisoquinolin-2-yl}acetamide], at human OX1 receptors, the Kb was above 10 µM and the “OX1 potency (in words)” value is “no significant potency”.

In the case of `COc1ccc(CC2c3ccc(NCC4CC4)cc3CCN2CC(=O)NCc2ccccc2)cc1OC` (centres unmarked) [25f, N-Benzyl-2-{6-[(cyclopropylmethyl)amino]-1-[(3,4-dimethoxyphenyl)methyl]-1,2,3,4-tetrahydroisoquinolin-2-yl}acetamide], on human OX1 receptors, the Kb was above 10 µM.

On to `CCCCCCNc1ccc2c(c1)CCN(CC(=O)NCc1ccccc1)C2Cc1ccc(OC)c(OC)c1` (centres unmarked) [25t, N-Benzyl-2-{1-[(3,4-dimethoxyphenyl)methyl]-6-(hexylamino)-1,2,3,4-tetrahydroisoquinolin-2-yl}acetamide], for which the Kb on human OX1 receptors is above 10 µM.

As to `COC(=O)CCCCNc1ccc2c(c1)CCN(CC(=O)NCc1ccccc1)C2Cc1ccc(OC)c(OC)c1` (centres unmarked) [26f, Methyl 5-({2-[(benzylcarbamoyl)methyl]-1-[(3,4-dimethoxyphenyl)methyl]-1,2,3,4-tetrahydroisoquinolin-6-yl}amino)pentanoate], the Kb on human OX1 receptors worked out at 1.6 ± 0.19 µM.

As for `COc1ccc(CC2c3ccc(NC(C)=O)cc3CCN2CC(=O)NCc2ccccc2)cc1OC` (centres unmarked) [28a, N-Benzyl-2-{1-[(3,4-dimethoxyphenyl)methyl]-6-acetamido-1,2,3,4-tetrahydroisoquinolin-2-yl}acetamide], the Kb on human OX1 receptors is above 10 µM.

`CCCN(C)c1ccc2c(c1)CCN(CC(=O)NCc1ccccc1)C2Cc1ccc(OC)c(OC)c1` (centres unmarked) [25c, N-Benzyl-2-{1-[(3,4-dimethoxyphenyl)methyl]-6-[methyl(propyl)amino]-1,2,3,4-tetrahydroisoquinolin-2-yl}acetamide]: the Kb on human OX1 receptors turned out to be 0.619 ± 0.096 µM.

With `COc1ccc(CC2c3ccc(NCC(=O)N(C)C)cc3CCN2CC(=O)NCc2ccccc2)cc1OC` (centres unmarked) [26h, 2-({2-[(Benzylcarbamoyl)methyl]-1-[(3,4-dimethoxyphenyl)methyl]-1,2,3,4-tetrahydroisoquinolin-6-yl}amino)-N,N-dimethylacetamide], at human OX1 receptors, the Kb is above 10 µM and the “OX1 potency (in words)” value was “large decline in potency”.
